For data set [1], the target named is T1, Aquaporin-1 (Homo sapiens) (UniProt P29972).
T1 sequence (whole entry): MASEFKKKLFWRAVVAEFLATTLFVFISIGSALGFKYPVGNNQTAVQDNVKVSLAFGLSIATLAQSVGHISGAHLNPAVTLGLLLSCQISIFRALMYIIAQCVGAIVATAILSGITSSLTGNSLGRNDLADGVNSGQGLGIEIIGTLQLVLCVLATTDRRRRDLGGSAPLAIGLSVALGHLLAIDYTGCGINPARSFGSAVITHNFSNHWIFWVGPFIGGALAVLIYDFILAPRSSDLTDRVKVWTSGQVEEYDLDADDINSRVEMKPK
In words: Inhibition of AQP1 (unknown origin) at 20 uM relative to control.

The target of data set [2] is T2, Aquaporin-4 (Homo sapiens, UniProt P55087). In words: Inhibition of AQP4-M23 (unknown origin).
Data set [3] deals with T2, Aquaporin-4. In words: Inhibition of AQP4-M23 (unknown origin) relative to control. The settings on record: concentration not given here.
For data set [4], the target named is T3, Aquaporin-3 (Homo sapiens, UniProt Q92482).
T3 sequence (Q92482 whole entry): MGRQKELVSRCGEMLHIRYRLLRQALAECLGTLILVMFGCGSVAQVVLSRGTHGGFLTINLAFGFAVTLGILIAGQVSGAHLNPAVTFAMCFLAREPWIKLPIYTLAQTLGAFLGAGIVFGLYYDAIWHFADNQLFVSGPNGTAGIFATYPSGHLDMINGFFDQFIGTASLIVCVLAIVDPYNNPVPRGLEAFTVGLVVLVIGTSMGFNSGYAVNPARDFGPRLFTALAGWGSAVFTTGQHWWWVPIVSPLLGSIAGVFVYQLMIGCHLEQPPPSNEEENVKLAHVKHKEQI
In words: Inhibition of AQP3 channel in human erythrocyte assessed as inhibition of glycerol permeability. In kind it is cell-based.

Data set [5] concerns the target T3, Aquaporin-3. In words: Inhibition of human AQP3 expressed in CHO cells. In kind it is cell-based.
In data set [6] the target is T3, Aquaporin-3. In words: Inhibition of AQP3 (unknown origin).
In another data set the target is T4, Aquaporin-1 (Homo sapiens, UniProt P29972).
T4 sequence (P29972 whole entry): T1 sequence (whole entry)
In words: Binding affinity to AQP1 (unknown origin) expressed in HEK cells assessed as dissociation constant. In kind it is cell-based.

In data set [7] the target is T5, Aquaporin-9 (Homo sapiens) (UniProt O43315).
T5 sequence (whole entry): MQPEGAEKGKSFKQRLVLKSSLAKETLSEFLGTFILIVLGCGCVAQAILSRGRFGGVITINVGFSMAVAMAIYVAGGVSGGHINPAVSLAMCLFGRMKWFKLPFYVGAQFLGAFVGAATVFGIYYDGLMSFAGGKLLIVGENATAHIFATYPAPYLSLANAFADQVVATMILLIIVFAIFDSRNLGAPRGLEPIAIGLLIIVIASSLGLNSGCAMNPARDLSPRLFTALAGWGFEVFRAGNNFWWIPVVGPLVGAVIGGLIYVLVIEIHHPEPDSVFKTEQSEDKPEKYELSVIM
Nature of the data set: Inhibition of AQP9 (unknown origin) expressed in xenopus laevis oocytes at 100 uM relative to control. In kind it is cell-based. Conditions: Oocyte.

A short description of data set [8]: Permeability of compound. In kind it is ADME. The settings on record: not told; read-out: permeability.
In data set [9] the target is T6, Aquaporin-3 (Mus musculus, UniProt Q8R2N1).
T6 sequence (Q8R2N1 whole entry): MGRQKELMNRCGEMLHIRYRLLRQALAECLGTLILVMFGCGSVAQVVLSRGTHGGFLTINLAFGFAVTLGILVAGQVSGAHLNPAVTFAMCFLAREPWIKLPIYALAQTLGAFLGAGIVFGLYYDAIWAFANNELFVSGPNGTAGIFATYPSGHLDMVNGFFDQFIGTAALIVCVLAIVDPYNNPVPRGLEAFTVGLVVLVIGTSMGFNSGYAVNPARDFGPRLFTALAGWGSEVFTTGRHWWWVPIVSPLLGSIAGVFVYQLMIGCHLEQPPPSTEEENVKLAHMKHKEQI
In words: Inhibition of mouse AQP3.

The target in a further data set is T7, Aquaporin-9 (Mus musculus, UniProt Q9JJJ3).
T7 sequence (Q9JJJ3 whole entry): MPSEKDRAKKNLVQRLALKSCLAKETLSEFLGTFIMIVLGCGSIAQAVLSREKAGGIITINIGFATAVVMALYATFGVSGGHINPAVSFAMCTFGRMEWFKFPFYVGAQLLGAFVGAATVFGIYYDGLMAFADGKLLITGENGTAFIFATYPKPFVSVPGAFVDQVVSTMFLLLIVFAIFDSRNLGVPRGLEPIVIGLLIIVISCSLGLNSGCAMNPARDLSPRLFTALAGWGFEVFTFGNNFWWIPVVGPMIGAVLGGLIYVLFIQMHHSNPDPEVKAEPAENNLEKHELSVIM
In words: Inhibition of mouse AQP9.

We go through 6 compounds from ChEMBL document CHEMBL6182835, “Distinctive roles of aquaporins and novel therapeutic opportunities against cancer” (RSC Med Chem, 2025).

As a reminder, the inhibition is the share of the control response that was lost under treatment. Low readings indicate little suppression, high ones strong suppression. Broadly, the IC50 is the midpoint of a concentration-inhibition curve. Broadly, the Kd is the concentration at which binding is half-saturated.

T2 sequence (P55087 whole entry): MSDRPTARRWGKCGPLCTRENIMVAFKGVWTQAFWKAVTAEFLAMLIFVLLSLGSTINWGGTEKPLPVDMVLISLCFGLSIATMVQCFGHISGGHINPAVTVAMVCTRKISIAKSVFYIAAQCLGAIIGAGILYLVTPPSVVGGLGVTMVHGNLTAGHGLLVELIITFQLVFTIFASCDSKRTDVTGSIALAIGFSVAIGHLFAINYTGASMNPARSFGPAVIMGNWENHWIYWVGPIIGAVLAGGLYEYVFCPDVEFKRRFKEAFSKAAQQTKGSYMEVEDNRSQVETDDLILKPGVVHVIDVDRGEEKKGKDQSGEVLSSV

In the case of `O=C(Nc1nncs1)c1cccnc1`, the inhibition turned out to be 56% in [1] and 73% at Aquaporin-4 [3]. At Aquaporin-4 [2], the IC50 is 3 µM.

In the case of `O=C(Nc1csc([N+](=O)[O-])c1)Nc1c(Cl)cccc1Cl`, the IC50 on Aquaporin-3 [4] was about 0.2 µM; against Aquaporin-3 [5], about 0.1 µM.

In turn, `Cc1ccc(CC2(OCCN(C)C)CCC(C(C)(C)C)CC2)cc1` (stereo not drawn) returned an IC50 against Aquaporin-3 [6] of 27 µM.

For `CC(=O)Nc1nnc(S(N)(=O)=O)s1` [ACETAZOLAMIDE], the Kd on Aquaporin-1 was found to be 174 µM.

Regarding `O=C(CCc1ccc(O)cc1)c1c(O)cc(O)cc1O` [PHLORETIN], the inhibition in data set [7] stood at 86%. Also, in data set [8], the Papp was about 2.8 ×10⁻⁶ cm/s.

Take `CCOC(=O)c1ccc(NC(=O)NCc2ccc(-n3cccn3)cc2)cc1`: the IC50 on Aquaporin-3 [4] is about 0.6 µM; against Aquaporin-3 [5], 0.2 µM; against Aquaporin-3 [9], 0.7 µM; on Aquaporin-9, 1.1 µM.
